21 molecules from patent publication US20210387996A1, “TRICYCLIC COMPOUNDS FOR THE TREATMENT AND PROPHYLAXIS OF HEPATITIS B VIRUS DISEASE” (priority 2018, published 2021) can be followed below.

The subject of experiment [1] is HBV (extracellular HBsAg) in PHH. The experiment in a line: Cryopreserved primary human hepatocytes (PHH) HBV infection assay, extracellular HBsAg (CLIA). The experiment is classed as cell-based. The note with it: Hepatitis B virus, Hepatocyte, 216 h, read-out: HBsAg IC50. How it is done:
This assay is used to confirm the anti-HBV effect of the compounds in HBV PHH infection assay. Cryopreserved PHH (BioreclamationIVT, Lot YJM) was thawed at 37° C. and gently transferred into pre-warmed InVitroGRO HT medium (BioreclamationIVT, Cat. S03317). The mixture was centrifuged at 70 relative centrifugal force (RCF) for 3 mins at RT, and the supernatant was discarded. Pre-warmed InVitroGRO CP medium (BioreclamationIVT, Cat #S03316) was added to the cell pellet to gently re-suspend cells. The cells were seeded at the density of 5.8×10^4 cells per well to collagen I coated 96-well plate (Gibco, Cat. A1142803) with the InVitroGRO CP medium. All plates were incubated at 37° C. with 5% CO2 and 85% humidity.
At 20 hours after plating, the medium was changed to PHH culture medium (Dulbecco's Modified Eagle Medium (DMEM)/F12 (1:1) (Gibco, Cat. 11320-033), 10% fetal bovine serum (Gibco Cat. 10099141), 100 U/mL penicillin, 100 μg/mL streptomycin (Gibco, Cat. 151401-122), 5 ng/mL human epidermal growth factor (Invitrogen Cat. PHG0311L), 20 ng/mL dexamethasone (Sigma, Cat. D4902) and 250 ng/mL human recombinant insulin (Gibco, Cat. 12585-014)). And the cells were incubated at 37° C. with 5% CO2 and 85% humidity for 4 hours. The medium was then changed to pre-warmed PHH culture medium containing 4% polyethylene glycol (PEG) MW8000 (Sigma, Cat. P1458-50ML) and 1% DMSO (Sigma, Cat. D2650). 5.8×10^6 genomic equivalents of HBV were added into the medium.
At 24 hours post-infection, the cells were gently washed with PBS and refreshed with PHH culture medium supplemented with 1% DMSO, and 0.25 mg/mL Matrix gel (Corning, Cat. 356237) at 200 μL per well. All plates were immediately placed in at 37° C. CO2 incubator.
24 hours later, serial dilutions of compounds made with DMSO were further diluted with the same culture medium (PHH culture medium supplemented with 1% DMSO and 0.25 mg/mL Matrix gel as described above) before they were added to the cells to reach desired final compound concentrations and 1% DMSO concentration. The medium containing the compounds were refreshed every three days.
At 9 days post-compound treatment, extracellular HBsAg level were measured with Chemiluminescence Immuno Assay (CLIA) kit (Autobio, HBsAg Quantitative CLIA). Extracellular HBV DNA was extracted by MagNA Pure 96 system (Roche) and then determined by quantitative PCR with the following primers and probe: […]
HBsAg IC50 and HBV DNA IC50 values were derived from the dose-response curve using 4 parameter logistic curve fit method. The compounds of formula (I) have HBsAg IC50<20 μM, particularly <1 μM; and HBV DNA IC50<50 μM.

The test system of experiment [2] is HBeAg level in HepDES19 cells (surrogate marker for cccDNA). The experiment in a line: Engineered HepDES19 primary screen assay (HBeAg as surrogate marker for cccDNA). The experiment is classed as cell-based, HBV. The note with it: Hepatitis B virus, HepDES19, 120 h, read-out: IC50 (HBeAg level, HepDES19 primary screen assay). An excerpt: The assay was employed to screen for novel cccDNA inhibitors. HepDES19 is a cccDNA-producing cell line. In this cell line, HBeAg in the cell culture supernatant as surrogate marker, as HBeAg production depends on cccDNA level and activity. HepDES19 is an engineered cell line which contains a 1.1 unit length HBV genome, and pgRNA transcription from the transgene is controlled by Tetracycline (Tet). In the absence of Tet, pgRNA transcription will be induced, but HBV e antigen (HBeAg) could not be produced from this pgRNA due to very short leader sequence before the HBeAg start codon and the start codon is disrupted. Only after cccDNA is formed, the missing leader sequence and start codon mutation would be restored from the 3′-terminal redundancy of pgRNA, and then HBeAg could be synthesized. Therefore, HBeAg could be used as a surrogate marker for cccDNA (Zhou, T. et al., Antiviral Res. (2006), 72(2), 116-124; Guo, H. et al., J. Virol. (2007), 81(22), 12472-12484).
HepDES19 cells were seeded at 2×10^6 cells per T150 flask and cultured with the culture medium (Dulbecco's Modified Eagle Medium: Nutrient Mixture F-12 [DMEM-F12, Gibco Cat. 11320-82], 10% Fetal Bovine Serum [FBS, Clontech Cat. 631101], 0.1 mM Non-Essential Amino Acids Solution [NEAA, Gibco Cat. 11140-050], 50 μg/mL Penicillin-Streptomycin [PS, Invitrogen Cat. 15140-163], 500 μg/mL Geneticin [G418, Invitrogen Cat. 10131-027]) containing 3 μg/mL Tet (Sigma, Cat. 87128) for 5 days. Cells were then seeded at 4×10^6 cells per T150 in the same culture medium as described above in the absence of Tet for 8 days. Cells were then harvested and frozen at density of 2×10^6 cells per mL. For compound testing, the frozen cells were thawed and seeded into 96-well plates at a density of 6×10^4 cells per well. At 24 hours after seeding, half log serial dilutions of compounds made with Dimethyl sulfoxide (DMSO, Sigma, Cat. D2650) were further diluted with the same culture medium as described above before they were added to the cells to reach desired final compound concentrations and 1% DMSO concentration. Plates were then incubated at 37° C. for another 5 days before measurement of HBeAg level and cell viability. Intracellular HBeAg level were measured with enzyme-linked immunosorbent assay (ELISA) kit (Shanghai Kehua Diagnostic Medical Products Co., Ltd). Cell viability was assessed using Cell Counting Kit-8 (Donjindo, Cat. CK04-20). IC50 values were derived from the dose-response curve using 4 parameter logistic curve fit method.
The compounds of the present invention were tested for their capacity to inhibit extracellular HBeAg level as described herein.

The term IC50 denotes the concentration at which inhibition is half-maximal. Consider `CC(C)(C)OC(=O)N1CCc2c(oc3c(Cl)cccc3c2=O)C1` [Example 1, tert-butyl 9-chloro-5-oxo-3,4-dihydro-1H-chromeno[2,3-c]pyridine-2(5H)-carboxylate], for which the results for the half-maximal inhibitory concentration (IC50) in experiment [1] and in experiment [2] were 10.6 µM and 9.12 µM, respectively.

As to `COc1ccc(N2CCc3c(oc4c(Cl)cccc4c3=O)C2=O)cc1` [Example 9, 9-chloro-2-(4-methoxyphenyl)-3,4-dihydro-1H-chromeno[2,3-c]pyridine-1,5(2H)-dione], the half-maximal inhibitory concentration (IC50) in experiment [1] turned out to be 3.52 µM; in experiment [2], 2.73 µM.

With `O=C1c2oc3c(Cl)cccc3c(=O)c2CCN1c1ccc(Cl)cc1` [Example 12, 9-chloro-2-(4-chlorophenyl)-3,4-dihydro-1H-chromeno[2,3-c]pyridine-1,5(2H)-dione], the IC50 worked out at 2.76 µM in experiment [1] and 0.82 µM in experiment [2].

`O=C1c2oc3c(Cl)cccc3c(=O)c2CCN1c1ccc(F)cc1` [Example 14, 9-chloro-2-(4-fluorophenyl)-3,4-dihydro-2H-chromeno[2,3-c]pyridine-1,5-dione]: the results for the half-maximal inhibitory concentration (IC50) in experiment [1] and in experiment [2] were 9.85 µM and 2.07 µM, respectively.

As for `O=C1c2oc3c(Cl)cccc3c(=O)c2CCN1c1ccc(Cl)nc1` [Example 16, 9-chloro-2-(6-chloropyridin-3-yl)-3,4-dihydro-2H-chromeno[2,3-c]pyridine-1,5-dione], the IC50 in experiment [1] is 3.17 µM; in experiment [2], 34.4 µM.

Consider `COc1cc(Cl)ccc1N1CCc2c(oc3c(Cl)cccc3c2=O)C1=O` [Example 17, 9-chloro-2-(4-chloro-2-methoxyphenyl)-3,4-dihydro-2H-chromeno[2,3-c]pyridine-1,5-dione], for which the figures for the IC50 in experiment [1] and in experiment [2] were 14.7 µM and 2.4 µM, respectively.

With `O=C1c2oc3c(Cl)cccc3c(=O)c2CCN1c1ccc(F)c(C(F)(F)F)c1` [Example 18, 9-chloro-2-(4-fluoro-3-(trifluoromethyl)phenyl)-3,4-dihydro-2H-chromeno[2,3-c]pyridine-1,5-dione], the IC50 was determined as 2.84 µM in experiment [1] and 14 µM in experiment [2].

Regarding `O=C1c2oc3c(Cl)cccc3c(=O)c2CCN1c1ccccc1` [Example 19, 9-chloro-2-phenyl-3,4-dihydro-2H-chromeno[2,3-c]pyridine-1,5-dione], the results for the concentration for half-maximal inhibition (IC50) in experiment [1] and in experiment [2] were 16.9 µM and 0.56 µM, respectively.

For `O=C1c2oc3c(Cl)cccc3c(=O)c2CCN1c1ccc(C(F)(F)F)cc1` [Example 20, 9-chloro-2-(4-(trifluoromethyl)phenyl)-3,4-dihydro-2H-chromeno[2,3-c]pyridine-1,5-dione], the figures for the IC50 in experiment [1] and in experiment [2] were 7.4 µM and 5.68 µM, respectively.

As for `O=C1c2oc3c(Cl)cccc3c(=O)c2CCN1c1ccc(Cl)c(C(F)(F)F)c1` [Example 22, 9-chloro-2-(4-chloro-3-(trifluoromethyl)phenyl)-3,4-dihydro-2H-chromeno[2,3-c]pyridine-1,5-dione], the IC50 in experiment [1] stood at 3.44 µM; in experiment [2] it was 25.6 µM.

Turning to `O=C1c2oc3c(Cl)cccc3c(=O)c2CCN1c1ccccc1OC(F)(F)F` [Example 23, 9-chloro-2-(2-(trifluoromethoxy)phenyl)-3,4-dihydro-2H-chromeno[2,3-c]pyridine-1,5-dione], the IC50 was 16.5 µM in experiment [1] and 6.88 µM in experiment [2].

In the case of `O=C(O)C1CC(Oc2ccccc2N2CCc3c(oc4c(Cl)cccc4c3=O)C2=O)C1` (stereo not shown) [Example 25, 3-(2-(9-chloro-1,5-dioxo-1,3,4,5-tetrahydro-2H-chromeno[2,3-c]pyridin-2-yl)phenoxy)cyclobutane-1-carboxylic Acid], the IC50 in experiment [1] was 48.4 µM.

Take `O=C(O)C1CC(Oc2cc(Cl)ccc2N2CCc3c(oc4c(Cl)cccc4c3=O)C2=O)C1` (stereo not shown) [Example 26, 3-(5-chloro-2-(9-chloro-1,5-dioxo-1,3,4,5-tetrahydro-2H-chromeno[2,3-c]pyridin-2-yl)phenoxy)cyclobutane-1-carboxylic Acid]: the IC50 in experiment [1] was 18.1 µM.

`O=C1c2oc3c(Cl)cccc3c(=O)c2CCN1c1ccc(Cl)cc1C(F)(F)F` [Example 27, 9-chloro-2-(4-chloro-2-(trifluoromethyl)phenyl)-3,4-dihydro-2H-chromeno[2,3-c]pyridine-1,5-dione]: the values for the concentration for half-maximal inhibition (IC50) in experiment [1] and in experiment [2] were 13 µM and 0.89 µM, respectively.

For the molecule `O=C1c2oc3c(Cl)cccc3c(=O)c2CCN1c1ccc(Cl)c(Cl)c1` [Example 28, 9-chloro-2-(3,4-dichlorophenyl)-3,4-dihydro-2H-chromeno[2,3-c]pyridine-1,5-dione], the half-inhibitory concentration (IC50) stood at 0.57 µM in experiment [1] and 1.08 µM in experiment [2].

Take `O=C1c2oc3c(Cl)cccc3c(=O)c2CCN1c1ccc(Cl)cc1F` [Example 29, 9-chloro-2-(4-chloro-2-fluorophenyl)-3,4-dihydro-2H-chromeno[2,3-c]pyridine-1,5-dione]: the IC50 in experiment [1] turned out to be 2.17 µM; in experiment [2], 2.36 µM.

As to `Cn1cc(N2CCc3c(oc4c(Cl)cccc4c3=O)C2=O)cn1` [Example 35, 9-chloro-2-(1-methyl-1H-pyrazol-4-yl)-3,4-dihydro-2H-chromeno[2,3-c]pyridine-1,5-dione], the IC50 in experiment [1] came to 10.5 µM; in experiment [2], 46.9 µM.

With `O=c1c2c(oc3c(Cl)cccc13)CN(c1ccc(C(F)(F)F)cc1)CC2` [Example 39, 9-chloro-2-(4-(trifluoromethyl)phenyl)-1,2,3,4-tetrahydro-5H-chromeno[2,3-c]pyridin-5-one], the IC50 was 5.65 µM in experiment [1] and 0.96 µM in experiment [2].

As to `O=c1c2c(oc3c(Cl)cccc13)CN(c1ccc(Cl)c(Cl)c1)CC2` [Example 49, 9-chloro-2-(3,4-dichlorophenyl)-1,2,3,4-tetrahydro-5H-chromeno[2,3-c]pyridin-5-one], the IC50 in experiment [2] is 40.1 µM.

For the molecule `COCc1cc(Cl)ccc1N1CCc2c(oc3c(Cl)cccc3c2=O)C1=O` [Example 50, 9-chloro-2-(4-chloro-2-(methoxymethyl)phenyl)-3,4-dihydro-2H-chromeno[2,3-c]pyridine-1,5-dione], the half-inhibitory concentration (IC50) in experiment [2] was found to be 26.4 µM.

Take `COc1ccc(N2Cc3c(oc4c(Cl)cccc4c3=O)C2=O)cc1` [Example 52, 5-chloro-2-(4-methoxyphenyl)-1H-chromeno[2,3-c]pyrrole-3,9-dione]: in experiment [2], the IC50 turned out to be 37.7 µM.
